The first test in a line: Agonist activity at ER in human MCF7:WS8 cells assessed as increase in cell growth by measuring DNA level after 7 days by fluorescence analysis.
A word on the EC50: it is the concentration at which the effect is half-maximal. For `CCC(=C(c1ccc(O)cc1)c1ccc(O)cc1)c1ccccc1` [1,1-bis(4,4'-hydroxyphenyl)-2-phenylbut-1-ene], the EC50 came to 0.015 nM.

As to `COc1ccc2c(c1)CCCC(c1ccccc1)=C2c1ccc(O)cc1`, the EC50 worked out at 4 nM. The same measure, in the same setting: for `CNCCOc1ccc2c(c1)CCCC(c1ccccc1)=C2c1ccc(O)cc1` the value was 20 nM. Regarding `COc1ccc(C2=C(c3ccccc3)CCCc3cc(O)ccc32)cc1`, the 50% effective concentration (EC50) was found to be 0.3 nM.

On to `CN(C)CCOc1ccc2c(c1)CCCC(c1ccccc1)=C2c1ccc(O)cc1`, for which the EC50 stood at 15 nM. Still for that read-out and setting: as for `CCC(=C(c1ccc(O)cc1)c1ccc(O)cc1)c1ccc(O)cc1`, the figure is 0.15 nM; as for `CCOc1ccc2c(c1)CCCC(c1ccccc1)=C2c1ccc(O)cc1`, 2.7 nM. The same measure, in the same setting: for `CCOc1ccc(C2=C(c3ccccc3)CCCc3cc(O)ccc32)cc1` the value was 0.3 nM.

A short description of the next test: Antagonist activity at ER in human MCF7:WS8 cells assessed as inhibition of estradiol-induced cell growth by measuring DNA level after 7 days by fluorescence analysis.
The IC50 is the concentration that inhibits the measured activity by half. For the molecule `CNCCOc1ccc(C2=C(c3ccccc3)CCCc3cc(O)ccc32)cc1`, the IC50 was 3 nM. Still for that read-out and setting: as for `CCOc1ccc2c(c1)CCCC(c1ccccc1)=C2c1ccc(OCCN(C)C)cc1`, the figure is 3 nM.

The record behind these values is BindingDB's records for doi:10.1021/jm500569h (Georgetown University, 2014).
